From PMC8112869, “Therapeutic inhibition of keratinocyte TRPV3 sensory channel by local anesthetic dyclonine” (eLife, 2021) come the findings set out here.

What is called IC50 is the midpoint of a concentration-inhibition curve. A lower IC50 goes with higher potency. As usually defined, the inhibition is the change of the read-out against control, counted positive when it falls. Usually EC50 stands for the concentration giving half of the maximal effect.

The test system of assay [1] is T-Rex 293 cells expressing TRPV3 G573S. Kind of assay: Cell death analysis by flow cytometry (propidium iodide), cells expressing G573S mutant. It is filed as cell-based, Homo sapiens. Here is the method:
(§1) T-Rex 293 cells were grown in DMEM containing 4.5 mg/ml glucose, 10% (vol/vol) FBS, 50 units/ml penicillin, 50 μg/ml streptomycin, and blasticidin S (10 μg/ml), and were incubated at 37°C in a humidified incubator gassed with 5% CO2. Transfections were performed in wells of a 24-well plate using lipofectamine 2000 (Invitrogen). […] Expression of GFP fluorescence detected by an epifluorescence microscope was used as an indicator of gene expression. After treatments with the compounds for 12 hr, cells were collected, washed twice with PBS, resuspended, and then dyed with propidium iodide (PI, Thermo Fisher Scientific) in the dark according to the manufacturer’s instructions. The membrane integrity of the cells was assessed using a BD FACSCelesta flow cytometer equipped with BD Accuri C6 software (BD Biosciences, USA).
In general terms: In flow cytometry, cells or beads pass a laser one at a time.

Another assay deals with T1, mouse TRPV3 (Mus musculus, UniProt Q8K424).
T1 sequence (Q8K424 1-791): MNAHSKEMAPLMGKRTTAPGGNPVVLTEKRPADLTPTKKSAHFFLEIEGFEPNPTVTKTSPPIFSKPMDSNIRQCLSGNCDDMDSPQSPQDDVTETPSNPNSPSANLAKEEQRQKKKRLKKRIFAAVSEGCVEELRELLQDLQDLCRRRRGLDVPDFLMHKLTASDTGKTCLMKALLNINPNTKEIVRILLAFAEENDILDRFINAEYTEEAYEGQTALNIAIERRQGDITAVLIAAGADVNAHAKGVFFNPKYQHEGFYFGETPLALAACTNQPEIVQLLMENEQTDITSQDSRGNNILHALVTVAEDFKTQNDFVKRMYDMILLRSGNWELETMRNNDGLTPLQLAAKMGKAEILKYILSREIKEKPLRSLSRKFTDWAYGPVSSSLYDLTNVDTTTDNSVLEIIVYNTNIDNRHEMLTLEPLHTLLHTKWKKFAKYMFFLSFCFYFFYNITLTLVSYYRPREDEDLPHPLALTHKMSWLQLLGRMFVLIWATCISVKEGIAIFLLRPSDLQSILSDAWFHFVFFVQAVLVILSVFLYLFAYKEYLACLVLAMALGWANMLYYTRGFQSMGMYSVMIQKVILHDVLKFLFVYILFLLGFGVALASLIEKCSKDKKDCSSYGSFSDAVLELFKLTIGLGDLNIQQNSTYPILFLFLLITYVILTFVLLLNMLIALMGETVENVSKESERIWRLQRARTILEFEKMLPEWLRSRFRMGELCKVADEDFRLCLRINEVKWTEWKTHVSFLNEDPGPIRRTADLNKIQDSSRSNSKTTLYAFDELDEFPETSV
The experiment in a line: cell-based. Conditions: for TRPV3 currents response, of control level: 100 µM 2-APB, –60 mV, after sensitization; for EC50: EC50 of 2-APB for TRPV3 activation. An excerpt: The WT mouse TRPV3 (mTRPV3), human TRPV3 (hTRPV3), rat TRPV1, rat TRPV2, rat TRPM8, and mouse TRPA1 cDNAs were generously provided by Dr. Feng Qin (State University of New York at Buffalo, Buffalo, USA). The GFP-mTRPV3 WT and the mutants (mTRPV3-G573S and mTRPV3-G573C) in pcDNA4/TO vector were gifts from Dr. Michael X Zhu (The University of Texas Health Science Center at Houston, Houston, USA). The WT fTRPV3 was kindly provided by Dr. Makoto Tominaga (Department of Physiological Sciences, SOKENDAI, Okazaki, Japan). All mutations were made using the overlap-extension polymerase chain reaction method as previously described ([Tian et al., 2019]). The resulting mutations were then verified by DNA sequencing. HEK 293T and T-Rex 293 cells were grown in Dulbecco’s modified Eagle’s medium (DMEM, Thermo Fisher Scientific, MA) containing 4.5 mg/ml glucose, 10% heat-inactivated fetal bovine serum (FBS), 50 units/ml penicillin, and […], and were incubated at 37°C in a humidified incubator gassed with 5% CO2. For T-Rex 293, blasticidin S (10 μg/ml) was also included. Cells grown into ~80% confluence were transfected with the desired DNA constructs using either the standard calcium phosphate precipitation method or lipofectamine 2000 (Invitrogen, Carlsbad, CA) following the protocol provided by the manufacturer. Transfected HEK 293T cells were reseeded on 12 mm round glass coverslips coated by poly-L-lysine. Experiments took place ~12–24 hr after transfection.
Conventional whole-cell and excised patch-clamp recording methods were used. For the recombinant expressing system, green fluorescent EGFP was used as a surface marker for gene expression. Recording pipettes were pulled from borosilicate glass capillaries (World Precision Instruments) and fire-polished to a resistance between 2 and 4 MΩ when filled with internal solution containing (in mM) 140 CsCl, 2.0 MgCl2, 5 EGTA, and 10 HEPES, pH 7.4 (adjusted with CsOH). Bath solution contained (in mM): 140 NaCl, 5 KCl, 3 EGTA, and 10 HEPES, pH 7.4 adjusted with NaOH. For recordings in keratinocytes, the bath saline consisted of (in mM) 140 NaCl, 5 KCl, 2 MgCl2, 2 CaCl2, 10 glucoses, and 10 HEPES, pH 7.4 adjusted with NaOH, and the pipette solution contained (in mM) 140 CsCl, 5 EGTA, and 10 HEPES, pH 7.3 adjusted with CsOH. For single-channel recordings, the pipette solution and bath solution were symmetrical and contained (in mM) 140 NaCl, 5 KCl, 3 EGTA, and 10 HEPES, pH 7.4. Isolated cells were voltage clamped and held at –60 mV using an EPC10 amplifier with the Patchmaster software (HEKAElectronics, Lambrecht, Germany). For a subset of recordings, currents were amplified using an Axopatch 200B amplifier (Molecular Devices, Sunnyvale, CA) and recorded through a BNC-2090/MIO acquisition system (National Instruments, Austin, TX) using QStudio developed by Dr. Feng Qin at State University of New York at Buffalo. Whole-cell recordings were typically sampled at 5 kHz and filtered at 1 kHz, and single-channel recordings were sampled at 25 kHz and filtered at 10 kHz. The compensation of pipette series resistance and capacitance was compensated using the built-in circuitry of the amplifier (>80%) to reduce voltage errors. Exchange of external solution was performed using a gravity-driven local perfusion system. […] Dyclonine hydrochloride, MTSET and carvacrol were purchased from MCE (MedChemExpress). Unless otherwise noted, all chemicals were purchased from Sigma (Millipore Sigma, St. Louis, MO). Water-insoluble reagents were dissolved in pure ethanol or DMSO to make a stock solution and diluted into the recording solution at the desired final concentrations before the experiment. […] In the scratching behavior experiments, carvacrol was first dissolved in 10% ethanol and then diluted in normal saline before administration.

Assay [2] concerns T-Rex 293 cells expressing WT TRPV3. The experiment in a line: Cell death analysis by flow cytometry (propidium iodide), cells expressing WT TRPV3. It is filed as cell-based, Homo sapiens. How it is done:
as §1

[3] abbreviates: dyclonine (50 μM) added to 2-APB (30 μM), averaged.
The mark [4] stands for this setting: dyclonine (50 μM) or 2-APB (30 μM) alone, averaged from seven experiments.

Consider `CCCCOc1ccc(C(=O)CCN2CCCCC2)cc1` [dyclonine], for which the cell death ratio in assay [1] (setting [3]) is reported as 17.68% ± 5.66%; in assay [1] (setting [4]) it was 12.45% ± 2.54%; in assay [2] (setting [3]) it was 9.12% ± 1.42%. Besides, the midpoint of inhibition against mouse TRPV3, the IC50, lay at 3.2 ± 0.24 µM. Also, the “TRPV3 currents response, of control level” value at mouse TRPV3 (5 µM dyclonine) is 30% ± 2%; at mouse TRPV3 (10 µM dyclonine), 15% ± 3%. The “initial TRPV3 current” value on mouse TRPV3 (100 μM 2-APB with 5 μM dyclonine) amounted to 31.12 ± 2.86 pA/pF. Further, on mouse TRPV3 (2-APB-evoked, WT mouse TRPV3), the “Hill coefficient nH of inhibition of TRPV3 currents” value stood at 2.2 ± 0.32. Further, the inhibition at 10 µM on mouse TRPV3 (HEK-293T, read-out: inhibition of TRPV3 current (reduction in current amplitude)) came to 87%. At mouse TRPV3 (repeated 100 μM 2-APB with 5 μM dyclonine), the “repetitions to reach the current level of full sensitization” value is reported as ~ 16 repetitions.

With `NCCOB(c1ccccc1)c1ccccc1` [2-APB, 2-aminoethoxydiphenyl borate], the cell death ratio in assay [1] (setting [4]) is 53.60% ± 5.88%; in assay [2] (2-APB (30 μM) alone, 12 hr, averaged from seven experiments), 43.73% ± 3.46%. Also, the “initial TRPV3 current” value on mouse TRPV3 (100 μM 2-APB without dyclonine) was 86.43 ± 5.9 pA/pF. For the same compound, the EC50 turned out to be 22 ± 0.86 µM on mouse TRPV3 (with 3 μM dyclonine) and 22.93 ± 0.02 µM at mouse TRPV3 (without dyclonine, after full sensitization). Moreover, on mouse TRPV3 (repeated 100 μM 2-APB alone), the “repetitions to reach full sensitization level” value is “approximately eight”. The “Hill coefficient nH of 2-APB activation” value on mouse TRPV3 (with 3 μM dyclonine) was 1.7 ± 0.1; on mouse TRPV3 (without dyclonine) it was 1.6 ± 0.1.
